Laboratory results taken from patent publication US20110136862A1, “NOVEL TETRAMETHYL SUBSTITUTED PIPERIDINE DERIVATIVES AND THEIR USE AS MONOAMINE NEUROTRANSMITTER RE-UPTAKE INHIBITORS” (NEUROSEARCH A/S, priority 2008, published 2011).

Legend:
Assay type in all cases: biochemical
[1] = target: T1, reuptake of noradrenaline (NA) in synaptosomes (Rattus norvegicus, UniProt Q63380); assay: Inhibition of NA reuptake in synaptosomes; settings: 3H-NA, read-out: NA-uptake IC50
T1 construct: in synaptosomes as described in WO 97/16451; from tissue
Method: (§1) Compounds were tested for their ability to inhibit the reuptake of the monoamine neurotransmitters dopamine (DA) noradrenaline (NA) and serotonine (5-HT) in synaptosomes as described in WO 97/16451 (NeuroSearch A/S).
(§2) The test values are given as IC50 (the concentration (μM) of the test substance which inhibits the specific binding of ^3H-DA, ^3H-NA, or ^3H-5-HT by 50%).

[2] = target: T2, reuptake of dopamine (DA) in synaptosomes (Rattus norvegicus, UniProt P23977); assay: Inhibition of DA reuptake in synaptosomes; settings: 3H-DA, read-out: DA-uptake IC50
T2 construct: in synaptosomes as described in WO 97/16451; from tissue
Method: as §1, §2

[3] = target: T3, reuptake of serotonine (5-HT) in synaptosomes (Rattus norvegicus, UniProt P31652); assay: Inhibition of 5-HT reuptake in synaptosomes; settings: 3H-5-HT, read-out: 5-HT-uptake IC50
T3 construct: serotonine (5-HT) in synaptosomes; from tissue
Method: as §1, §2

T3 sequence (P31652 whole entry): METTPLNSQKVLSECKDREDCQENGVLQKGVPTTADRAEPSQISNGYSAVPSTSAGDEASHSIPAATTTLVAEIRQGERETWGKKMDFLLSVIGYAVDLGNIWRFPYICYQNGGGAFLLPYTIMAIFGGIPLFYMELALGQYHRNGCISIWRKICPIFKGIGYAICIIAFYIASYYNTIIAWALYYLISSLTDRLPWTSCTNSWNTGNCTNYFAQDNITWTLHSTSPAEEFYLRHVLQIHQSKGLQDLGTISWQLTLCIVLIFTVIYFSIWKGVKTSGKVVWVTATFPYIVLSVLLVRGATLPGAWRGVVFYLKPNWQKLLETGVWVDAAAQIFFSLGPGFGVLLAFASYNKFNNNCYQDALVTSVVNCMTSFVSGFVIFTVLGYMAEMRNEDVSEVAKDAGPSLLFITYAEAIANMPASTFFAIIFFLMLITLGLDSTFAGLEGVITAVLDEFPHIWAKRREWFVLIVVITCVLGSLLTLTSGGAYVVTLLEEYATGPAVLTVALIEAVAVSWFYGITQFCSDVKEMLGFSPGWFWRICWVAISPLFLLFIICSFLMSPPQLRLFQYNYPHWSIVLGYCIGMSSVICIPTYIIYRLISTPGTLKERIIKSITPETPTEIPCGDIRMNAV
T1 sequence (Q63380 1-617): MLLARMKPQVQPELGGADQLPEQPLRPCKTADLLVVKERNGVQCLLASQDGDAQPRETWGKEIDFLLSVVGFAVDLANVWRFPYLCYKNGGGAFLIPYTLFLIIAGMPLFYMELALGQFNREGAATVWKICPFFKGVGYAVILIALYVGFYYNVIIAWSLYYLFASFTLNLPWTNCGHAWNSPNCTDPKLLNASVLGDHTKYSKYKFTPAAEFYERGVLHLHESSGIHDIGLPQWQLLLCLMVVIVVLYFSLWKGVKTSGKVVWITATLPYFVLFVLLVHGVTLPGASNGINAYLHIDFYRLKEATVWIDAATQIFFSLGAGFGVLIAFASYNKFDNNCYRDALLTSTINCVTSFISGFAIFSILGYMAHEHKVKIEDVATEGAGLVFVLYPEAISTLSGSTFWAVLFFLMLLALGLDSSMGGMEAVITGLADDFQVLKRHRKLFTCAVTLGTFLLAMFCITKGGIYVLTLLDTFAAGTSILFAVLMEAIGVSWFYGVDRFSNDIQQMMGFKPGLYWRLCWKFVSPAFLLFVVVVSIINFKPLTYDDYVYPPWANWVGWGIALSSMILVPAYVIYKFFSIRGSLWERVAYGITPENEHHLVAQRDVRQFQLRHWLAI
T2 sequence (P23977 whole entry): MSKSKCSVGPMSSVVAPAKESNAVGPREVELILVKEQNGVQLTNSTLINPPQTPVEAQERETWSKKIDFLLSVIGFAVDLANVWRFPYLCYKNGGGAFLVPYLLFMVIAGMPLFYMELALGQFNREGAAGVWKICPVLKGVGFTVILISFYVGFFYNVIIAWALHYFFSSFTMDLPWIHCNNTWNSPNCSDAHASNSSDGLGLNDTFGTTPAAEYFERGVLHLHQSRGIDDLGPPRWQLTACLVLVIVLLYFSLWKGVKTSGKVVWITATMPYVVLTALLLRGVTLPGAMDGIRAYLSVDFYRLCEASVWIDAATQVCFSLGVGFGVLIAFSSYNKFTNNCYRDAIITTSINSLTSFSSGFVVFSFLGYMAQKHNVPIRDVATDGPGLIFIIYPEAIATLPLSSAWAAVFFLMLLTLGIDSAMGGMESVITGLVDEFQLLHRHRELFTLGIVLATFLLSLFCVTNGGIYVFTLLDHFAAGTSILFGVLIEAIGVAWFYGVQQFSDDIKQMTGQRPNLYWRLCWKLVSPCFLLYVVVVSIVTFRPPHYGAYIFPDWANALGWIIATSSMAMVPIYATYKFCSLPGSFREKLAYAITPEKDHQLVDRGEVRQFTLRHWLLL

| IC50 [1] [nM] | IC50 [2] [nM] | IC50 [3] [nM] | SMILES |
| --- | --- | --- | --- |
| 13 | 180 | 0.68 | CC1(C)CC(Oc2ccc3ccccc3n2)CC(C)(C)N1 [2-(2,2,6,6-Tetramethyl-piperidin-4-yloxy)-quinoline] |
| 130 | 78 | 13 | CC1(C)CC(Oc2ccc3cc(O)ccc3n2)CC(C)(C)N1 [2-(2,2,6,6-Tetramethyl-piperidin-4-yloxy)-quinolin-6-ol] |
